PubChem BioAssay AID1919016 (Molecular Pharmacology Branch, DTP, NCI, 2023)

Tested on: NCI-H196 complex spheroid growth, percent test/control
Test: Anticancer human tumor NCI-H196 cell line growth inhibition [AhR];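 note: seven days of drug exposure starting three days after plating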;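 for viability, T/C: 100% = DMSO vehicle control wells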
Conditions: for viability, T/C: stronger effect = lower value; active = viability on the fitted dose curve at most 10% of control; inactive = the rest
Outline: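 Complex tumor spheroids co-cultured with HUVEC and human MSC stroma; AhR antagonists tested in combination with standard-of-care and investigational agents. Top concentration at or near clinical Cmax (else 10 microM), half-log dilutions; growth expressed as percent test/control.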

[1] = curve of first compound, second compound 0.1 µM
[2] = curve of first compound, second compound 0.316 µM
[3] = curve of first compound, second compound 1 µM
[4] = curve of first compound, second compound 3.16 µM
[5] = curve of first compound, second compound 10 µM
[6] = second compound 0.1 µM, first compound 0.0316 µM
[7] = second compound 0.1 µM, first compound 0.1 µM
[8] = second compound 0.1 µM, first compound 0.316 µM
[9] = second compound 0.1 µM, first compound 1 µM
[10] = second compound 0.1 µM, first compound 3.16 µM
[11] = second compound 0.1 µM, first compound 10 µM
[12] = second compound 0.316 µM, first compound 0.0316 µM
[13] = second compound 0.316 µM, first compound 0.1 µM
[14] = second compound 0.316 µM, first compound 0.316 µM
[15] = second compound 0.316 µM, first compound 1 µM
[16] = second compound 0.316 µM, first compound 3.16 µM
[17] = second compound 0.316 µM, first compound 10 µM
[18] = second compound 1 µM, first compound 0.0316 µM
[19] = second compound 1 µM, first compound 0.1 µM
[20] = second compound 1 µM, first compound 0.316 µM
[21] = second compound 1 µM, first compound 1 µM
[22] = second compound 1 µM, first compound 3.16 µM
[23] = second compound 1 µM, first compound 10 µM
[24] = second compound 3.16 µM, first compound 0.0316 µM
[25] = second compound 3.16 µM, first compound 0.1 µM
[26] = second compound 3.16 µM, first compound 0.316 µM
[27] = second compound 3.16 µM, first compound 1 µM
[28] = second compound 3.16 µM, first compound 3.16 µM
[29] = second compound 3.16 µM, first compound 10 µM
[30] = second compound 10 µM, first compound 0.0316 µM
[31] = second compound 10 µM, first compound 0.1 µM
[32] = second compound 10 µM, first compound 0.316 µM
[33] = second compound 10 µM, first compound 1 µM
[34] = second compound 10 µM, first compound 3.16 µM
[35] = second compound 10 µM, first compound 10 µM
[36] = second compound 0.1 µM, first compound 0.000949 µM
[37] = second compound 0.1 µM, first compound 0.003 µM
[38] = second compound 0.1 µM, first compound 0.00949 µM
[39] = second compound 0.1 µM, first compound 0.03 µM
[40] = second compound 0.1 µM, first compound 0.0949 µM
[41] = second compound 0.1 µM, first compound 0.3 µM
[42] = second compound 0.316 µM, first compound 0.000949 µM
[43] = second compound 0.316 µM, first compound 0.003 µM
[44] = second compound 0.316 µM, first compound 0.00949 µM
[45] = second compound 0.316 µM, first compound 0.03 µM
[46] = second compound 0.316 µM, first compound 0.0949 µM
[47] = second compound 0.316 µM, first compound 0.3 µM
[48] = second compound 1 µM, first compound 0.000949 µM
[49] = second compound 1 µM, first compound 0.003 µM
[50] = second compound 1 µM, first compound 0.00949 µM
[51] = second compound 1 µM, first compound 0.03 µM
[52] = second compound 1 µM, first compound 0.0949 µM
[53] = second compound 1 µM, first compound 0.3 µM
[54] = second compound 3.16 µM, first compound 0.000949 µM
[55] = second compound 3.16 µM, first compound 0.003 µM
[56] = second compound 3.16 µM, first compound 0.00949 µM
[57] = second compound 3.16 µM, first compound 0.03 µM
[58] = second compound 3.16 µM, first compound 0.0949 µM
[59] = second compound 3.16 µM, first compound 0.3 µM
[60] = second compound 10 µM, first compound 0.000949 µM
[61] = second compound 10 µM, first compound 0.003 µM
[62] = second compound 10 µM, first compound 0.00949 µM
[63] = second compound 10 µM, first compound 0.03 µM
[64] = second compound 10 µM, first compound 0.0949 µM
[65] = second compound 10 µM, first compound 0.3 µM

COc1cccc2c1C(=O)c1c(O)c3c(c(O)c1C2=O)CC(O)(C(=O)CO)CC3OC1CC(N)C(O)C(C)O1 (stereo not given) + Cc1cncc(-c2nc(NCCc3c[nH]c4ccccc34)c3ncn(C(C)C)c3n2)c1
inactive: viability, T/C [6] 117% | viability, T/C [7] 102% | viability, T/C [8] 72.1% | viability, T/C [9] 27.3% | viability, T/C [12] 109% | viability, T/C [13] 115% | viability, T/C [14] 77.3% | viability, T/C [15] 15.7% | viability, T/C [18] 110% | viability, T/C [19] 106% | viability, T/C [20] 66.3% | viability, T/C [21] 15.6% | viability, T/C [24] 119% | viability, T/C [25] 95.9% | viability, T/C [26] 66.2% | viability, T/C [27] 6.46% | viability, T/C [30] 94.2% | viability, T/C [31] 77.8% | viability, T/C [32] 53.6%
330 nM: IC50 [5]
545 nM: IC50 [1]
414 nM: IC50 [4]
active: viability, T/C [10] 2.2% | viability, T/C [11] 2.04% | viability, T/C [16] 0.7% | viability, T/C [17] 1.46% | viability, T/C [22] 0.61% | viability, T/C [23] 3.01% | viability, T/C [28] 1.24% | viability, T/C [29] 2.12% | viability, T/C [33] 2.32% | viability, T/C [34] 0.59% | viability, T/C [35] 1.88%
528 nM: IC50 [2]
458 nM: IC50 [3]

CC(C)CC(NC(=O)C(Cc1ccccc1)NC(=O)c1cnccn1)B(O)O (stereo not given) + CC(CO)NC(=O)c1cc(-c2ccc(Cl)cc2)nn(-c2cnn(C)c2)c1=O
inactive: viability, T/C [36] 108% | viability, T/C [37] 106% | viability, T/C [38] 37% | viability, T/C [42] 106% | viability, T/C [43] 101% | viability, T/C [44] 41.8% | viability, T/C [48] 109% | viability, T/C [49] 103% | viability, T/C [50] 45.8% | viability, T/C [54] 118% | viability, T/C [55] 113% | viability, T/C [56] 54.9% | viability, T/C [60] 112% | viability, T/C [61] 116% | viability, T/C [62] 45.1%
7.64 nM: IC50 [1]
active: viability, T/C [39] 3.54% | viability, T/C [40] 2.43% | viability, T/C [41] 2.49% | viability, T/C [45] 2.17% | viability, T/C [46] 2.62% | viability, T/C [47] 1.45% | viability, T/C [51] 3.07% | viability, T/C [52] 1.88% | viability, T/C [53] 2.1% | viability, T/C [57] 3.25% | viability, T/C [58] 1.7% | viability, T/C [59] 1.74% | viability, T/C [63] 2.87% | viability, T/C [64] 2.23% | viability, T/C [65] 2.03%
10.6 nM: IC50 [4]
8.07 nM: IC50 [2]
8.75 nM: IC50 [5]
8.7 nM: IC50 [3]

COc1cc(C2c3cc4c(cc3C(OC3OC5COC(C)OC5C(O)C3O)C3COC(=O)C23)OCO4)cc(OC)c1O (stereo not given) + Cc1cncc(-c2nc(NCCc3c[nH]c4ccccc34)c3ncn(C(C)C)c3n2)c1
> 10000 nM: IC50 [1] | IC50 [2] | IC50 [3] | IC50 [4] | IC50 [5]
inactive: viability, T/C [6] 104% | viability, T/C [7] 103% | viability, T/C [8] 98.9% | viability, T/C [9] 99.8% | viability, T/C [10] 103% | viability, T/C [11] 96.7% | viability, T/C [12] 104% | viability, T/C [13] 109% | viability, T/C [14] 101% | viability, T/C [15] 105% | viability, T/C [16] 112% | viability, T/C [17] 89.4% | viability, T/C [18] 99.7% | viability, T/C [19] 112% | viability, T/C [20] 104% | viability, T/C [21] 109% | viability, T/C [22] 103% | viability, T/C [23] 77.8% | viability, T/C [24] 108% | viability, T/C [25] 114% | viability, T/C [26] 112% | viability, T/C [27] 105% | viability, T/C [28] 100% | viability, T/C [29] 81.9% | viability, T/C [30] 89.1% | viability, T/C [31] 92% | viability, T/C [32] 101% | viability, T/C [33] 84.3% | viability, T/C [34] 77.4% | viability, T/C [35] 62%

Nc1ncn(C2CC(O)C(CO)S2)c(=O)n1 (stereo not given) + Cc1ccccc1N=Nc1ccc(NC(=O)c2ccnn2C)c(C)c1
inactive: viability, T/C [36] 95% | viability, T/C [37] 93.4% | viability, T/C [38] 99.1% | viability, T/C [39] 96.8% | viability, T/C [40] 102% | viability, T/C [41] 101% | viability, T/C [42] 105% | viability, T/C [43] 96.2% | viability, T/C [44] 104% | viability, T/C [45] 96% | viability, T/C [46] 101% | viability, T/C [47] 95.4% | viability, T/C [48] 97.6% | viability, T/C [49] 89.9% | viability, T/C [50] 97.9% | viability, T/C [51] 87.3% | viability, T/C [52] 91% | viability, T/C [53] 104% | viability, T/C [54] 89.3% | viability, T/C [55] 102% | viability, T/C [56] 100% | viability, T/C [57] 93.7% | viability, T/C [58] 97.7% | viability, T/C [59] 99.5% | viability, T/C [60] 85.1% | viability, T/C [61] 82.4% | viability, T/C [62] 86.2% | viability, T/C [63] 86.2% | viability, T/C [64] 90.5% | viability, T/C [65] 92.1%
> 300 nM: IC50 [1] | IC50 [2] | IC50 [3] | IC50 [4] | IC50 [5]

Cc1cncc(-c2nc(NCCc3c[nH]c4ccccc34)c3ncn(C(C)C)c3n2)c1
inactive: viability, T/C (compound 0.1 µM) 96.5% [middle of 20 runs] | viability, T/C (compound 0.316 µM) 99% [middle of 20 runs] | viability, T/C (compound 1 µM) 101% [middle of 20 runs] | viability, T/C (compound 3.16 µM) 106% [middle of 20 runs]
> 10000 nM: IC50 (compound alone, run of 08/16/2022)

CC1(C)CCC(CN2CCN(c3ccc(C(=O)NS(=O)(=O)c4ccc(NCC5CCOCC5)c([N+](=O)[O-])c4)c(Oc4cnc5[nH]ccc5c4)c3)CC2)=C(c2ccc(Cl)cc2)C1 + Cc1ccccc1N=Nc1ccc(NC(=O)c2ccnn2C)c(C)c1
inactive: viability, T/C [6] 111% | viability, T/C [7] 109% | viability, T/C [8] 109% | viability, T/C [9] 97% | viability, T/C [10] 115% | viability, T/C [11] 66% | viability, T/C [12] 101% | viability, T/C [13] 106% | viability, T/C [14] 99.9% | viability, T/C [15] 102% | viability, T/C [16] 108% | viability, T/C [17] 74.9% | viability, T/C [18] 100% | viability, T/C [19] 107% | viability, T/C [20] 108% | viability, T/C [21] 102% | viability, T/C [22] 102% | viability, T/C [23] 75.5% | viability, T/C [24] 104% | viability, T/C [25] 111% | viability, T/C [26] 107% | viability, T/C [27] 104% | viability, T/C [28] 104% | viability, T/C [29] 67.2% | viability, T/C [30] 95.6% | viability, T/C [31] 99.2% | viability, T/C [32] 100% | viability, T/C [33] 99.8% | viability, T/C [34] 100% | viability, T/C [35] 74.6%
> 10000 nM: IC50 [1] | IC50 [2] | IC50 [3] | IC50 [4] | IC50 [5]
